Test results published in US10597388B2, “Pyridazinone herbicides” (FMC CORPORATION, priority 2014, dated 2020).

Legend:
Experiment in all cases: Test D controlled growth environment herbicide test, pre- and postemergence
Assay type in all cases: in vivo
[1] = system: field poppy (Papaver rhoeas)
Summary of the method: (§1)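 Species sown in silt loam and sprayed preemergence, or grown in peat-based medium to 2–18 cm (1- to 4-leaf stage) and sprayed postemergence, with compounds in non-phytotoxic solvent plus surfactant. Visual injury scored versus controls after 14–21 d in a controlled environment, 0 (no effect) to 100 (complete control).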

[2] = system: barley, spring (spring barley, Hordeum vulgare)
Summary of the method: as §1

[3] = system: oilseed rape (Brassica napus)
Summary of the method: as §1

[4] = system: ryegrass, Italian (Italian ryegrass, Lolium multiflorum)
Summary of the method: as §1

[5] = system: wheat, spring (spring wheat, Triticum aestivum)
Summary of the method: as §1

[6] = system: mustard, wild (wild mustard, Sinapis arvensis)
Summary of the method: as §1

[7] = system: chamomile (scentless chamomile, Matricaria inodora)
Summary of the method: as §1

[8] = system: foxtail, green (green foxtail, Setaria viridis)
Summary of the method: as §1

[9] = system: wheat, winter (winter wheat, Triticum aestivum)
Summary of the method: as §1

[10] = system: blackgrass (Alopecurus myosuroides)
Summary of the method: as §1

[11] = system: lambsquarters (Chenopodium album)
Summary of the method: as §1

[12] = system: bluegrass (annual bluegrass, Poa annua)
Summary of the method: as §1

[13] = system: speedwell (bird's-eye speedwell, Veronica persica)
Summary of the method: as §1

[14] = Postemergence, 31 g ai/ha, scale 0 to 100 (0 no effect, 100 complete control)
[15] = Postemergence, 125 g ai/ha, visual rating on scale 0 (no effect) to 100 (complete control), 14 to 21 d
[16] = Postemergence, 250 g ai/ha, scale 0 to 100 (0 no effect, 100 complete control)
[17] = Preemergence, 125 g ai/ha, scale 0 to 100 (0 no effect, 100 complete control)
[18] = Preemergence, 250 g ai/ha, scale 0 to 100 (0 no effect, 100 complete control)
[19] = postemergence, 62 g ai/ha, scale 0 to 100, 0 no effect, 100 complete control
[20] = Preemergence, 62 g ai/ha, scale 0 to 100 (0 no effect, 100 complete control)

C#CCOC(=O)Oc1c(C)nn(C)c(=O)c1-c1c(C)sc2ccc(C)cc12 [Compound 87]
98: Plant response rating, Ryegrass, Italian [4, 16] | Plant response rating, Ryegrass, Italian [4, 17] | Plant response rating, Ryegrass, Italian [4, 18]
55: Plant response rating (scale of 0 to 100), Foxtail, Green ([8]; Preemergence, 62 g ai/ha)
25: Plant response rating, Mustard, Wild [6, 15] | Plant response rating, Mustard, Wild [6, 18] | Bluegrass plant response rating [12, 14] | Plant response rating (scale of 0 to 100), Bluegrass ([12]; Preemergence, 31 g ai/ha) | Plant response rating, Bluegrass [12, 19]
10: Plant response rating, Wheat, Spring [5, 16] | Mustard, Wild plant response rating [6, 14] | Plant response rating (scale of 0 to 100), Foxtail, Green ([8]; Preemergence, 31 g ai/ha)
5: Plant response rating, Barley, Spring [2, 16] | Plant response rating, Barley, Spring [2, 18] | Plant response rating, Wheat, Spring [5, 15] | Plant response rating, Wheat, Winter [9, 16]
0: Barley, Spring plant response rating [2, 14] | Plant response rating, Barley, Spring [2, 15] | Plant response rating (scale of 0 to 100), Barley, Spring ([2]; Preemergence, 31 g ai/ha) | Plant response rating, Barley, Spring [2, 20] | Plant response rating, Barley, Spring [2, 17] | Plant response rating, Barley, Spring [2, 19] | Wheat, Spring plant response rating [5, 14] | Plant response rating (scale of 0 to 100), Wheat, Spring ([5]; Preemergence, 31 g ai/ha) | Plant response rating (scale of 0 to 100), Wheat, Spring ([5]; Preemergence, 62 g ai/ha) | Plant response rating, Wheat, Spring [5, 19] | Plant response rating (scale of 0 to 100), Mustard, Wild ([6]; Preemergence, 31 g ai/ha) | Plant response rating (scale of 0 to 100), Mustard, Wild ([6]; Preemergence, 62 g ai/ha) | Plant response rating, Mustard, Wild [6, 17] | Wheat, Winter plant response rating [9, 14] | Plant response rating, Wheat, Winter [9, 15] | Plant response rating (scale of 0 to 100), Wheat, Winter ([9]; Preemergence, 31 g ai/ha) | Plant response rating (scale of 0 to 100), Wheat, Winter ([9]; Preemergence, 62 g ai/ha) | Plant response rating, Wheat, Winter [9, 17] | Plant response rating, Wheat, Winter [9, 19]
80: Plant response rating, Foxtail, Green [8, 15] | Plant response rating, Blackgrass [10, 17] | Plant response rating, Blackgrass [10, 18] | Plant response rating, Speedwell [13, 16] | Plant response rating (scale of 0 to 100), Speedwell ([13]; Preemergence, 31 g ai/ha)
20: Plant response rating, Wheat, Spring [5, 18]
95: Plant response rating, Ryegrass, Italian [4, 15] | Plant response rating (scale of 0 to 100), Ryegrass, Italian ([4]; Preemergence, 62 g ai/ha) | Plant response rating, Ryegrass, Italian [4, 19] | Plant response rating (scale of 0 to 100), Chamomile ([7]; Preemergence, 31 g ai/ha) | Plant response rating (scale of 0 to 100), Chamomile ([7]; Preemergence, 62 g ai/ha) | Plant response rating, Foxtail, Green [8, 17] | Plant response rating, Foxtail, Green [8, 18] | Lambsquarters plant response rating [11, 14]
30: Plant response rating (scale of 0 to 100), Oilseed Rape ([3]; Preemergence, 62 g ai/ha) | Plant response rating, Oilseed Rape [3, 17]
60: Plant response rating, Mustard, Wild [6, 16]
85: Plant response rating, Field Poppy [1, 15] | Plant response rating, Field Poppy [1, 19] | Plant response rating, Blackgrass [10, 15] | Plant response rating (scale of 0 to 100), Speedwell ([13]; Preemergence, 62 g ai/ha)
100: Plant response rating, Field Poppy [1, 16] | Plant response rating (scale of 0 to 100), Field Poppy ([1]; Preemergence, 31 g ai/ha) | Plant response rating (scale of 0 to 100), Field Poppy ([1]; Preemergence, 62 g ai/ha) | Plant response rating, Field Poppy [1, 17] | Plant response rating, Field Poppy [1, 18] | Plant response rating, Chamomile [7, 15] | Plant response rating, Chamomile [7, 16] | Plant response rating, Chamomile [7, 17] | Plant response rating, Chamomile [7, 18] | Plant response rating, Chamomile [7, 19] | Plant response rating, Lambsquarters [11, 15] | Plant response rating, Lambsquarters [11, 16] | Plant response rating (scale of 0 to 100), Lambsquarters ([11]; Preemergence, 62 g ai/ha) | Plant response rating, Lambsquarters [11, 17] | Plant response rating, Lambsquarters [11, 18] | Plant response rating, Lambsquarters [11, 19] | Plant response rating, Speedwell [13, 18]
45: Plant response rating, Oilseed Rape [3, 18] | Plant response rating, Bluegrass [12, 15] | Plant response rating, Bluegrass [12, 16] | Plant response rating, Bluegrass [12, 17]
15: Oilseed Rape plant response rating [3, 14] | Plant response rating (scale of 0 to 100), Oilseed Rape ([3]; Preemergence, 31 g ai/ha) | Plant response rating, Wheat, Spring [5, 17] | Plant response rating, Wheat, Winter [9, 18]
40: Plant response rating, Oilseed Rape [3, 19]
75: Plant response rating, Oilseed Rape [3, 16] | Plant response rating, Foxtail, Green [8, 19] | Plant response rating, Blackgrass [10, 20] | Plant response rating, Blackgrass [10, 19] | Plant response rating, Speedwell [13, 15] | Plant response rating, Speedwell [13, 19]
70: Field Poppy plant response rating [1, 14] | Foxtail, Green plant response rating [8, 14] | Plant response rating (scale of 0 to 100), Blackgrass ([10]; Preemergence, 31 g ai/ha) | Plant response rating (scale of 0 to 100), Lambsquarters ([11]; Preemergence, 31 g ai/ha) | Plant response rating, Bluegrass [12, 18] | Speedwell plant response rating [13, 14]
35: Plant response rating, Mustard, Wild [6, 19] | Plant response rating, Bluegrass [12, 20]
90: Ryegrass, Italian plant response rating [4, 14] | Plant response rating (scale of 0 to 100), Ryegrass, Italian ([4]; Preemergence, 31 g ai/ha) | Chamomile plant response rating [7, 14] | Plant response rating, Foxtail, Green [8, 16] | Plant response rating, Blackgrass [10, 16] | Plant response rating, Speedwell [13, 17]
65: Plant response rating, Oilseed Rape [3, 15] | Blackgrass plant response rating [10, 14]
